In patent publication US20050049299A1, “Selective inhibitors of stat-3 activation and uses thereof” (priority 2003, published 2005):
Entries after “also recorded” stand apart in the source; their conditions may differ.

Key:
Format in all cases: cell-based, human
[1] = system: STAT3 nuclear translocation; assay: Immunocytochemistry for STAT3 localization in U266 cells; conditions: 50 μM, 60 minutes
Description: U266 cells were incubated alone or with curcumin (50 μM) for 60 minutes and then analyzed for the distribution of STAT3 by immunocytochemistry (originial magnification, 200X).
FIGS. 6A-C show& the effect of cell permeable STAT3 inhibitor peptide (STAT3iP) on STAT3 phosphorylation and cell viability in U266 cells. […] Results are shown as mean (±s.d. indicated by error bar) of absorbance (570 nm) of triplicate cultures compared to the untreated control.
Curcumin-treated multiple myeloma cells were plated on a glass slide by centrifugation using a Cytospin 4 (Thermoshendon, Pittsburg, Pa.), air-dried for 1 h at room temperature, and fixed with cold acetone. After a brief washing in PBS, slides were blocked with 5% normal goat serum for 1 h and then incubated with rabbit polyclonal anti-human STAT3 antibody (dilution, 1:100). After overnight incubation, the slides were washed and then incubated with goat anti-rabbit IgG-Alexa 594 (1:100) for 1 h and counter-stained for nuclei with Hoechst (50 ng/ml) for 5 min. Stained slides were mounted with mounting medium (Sigma Co.) and analyzed under an epifluorescence microscope (Labophot-2, Nikon, Tokyo, Japan). Pictures were captured using Photometrics Coolsnap CF color camera (Nikon, Lewisville, Tex.) and MetaMorph version 4.6.5 software (Universal Imaging Corp., Downingtown, Pa.). […]

[2] = system: multiple myeloma cells; assay: Proliferation of multiple myeloma cells, curcumin vs AG490 (data not shown); conditions: 100 μM, 24 hours (data not shown)
[3] = system: STAT3 phosphorylation; assay: Constitutive STAT3 phosphorylation in MDA 1986LN cells (Western blot)
Description: TU167, MDA 1986LN, TU 686, MDA 686LN and JMAR cells (2×10^6 cells) were lysed and whole cell extracts (30 μg) were resolved on 7.5% SDS-PAGE, electrotransferred to a nitrocellulose membrane and probed for phosphorylated-STAT3 (p-STAT3) and total STAT3 proteins. […] MDA 1986LN cells (2×10^6 cells) were treated with curcumin (50 μM) for indicated durations or with indicated concentrations of curcumin for 1 h and levels of p-STAT3 (upper panels) and STAT3 (lower panels) were examined in whole cell extracts by Western blotting.
MDA 1986LN cells (2×10^6 cells) were treated with curcumin (50 μM) for the indicated durations (upper panels) or treated for 1 h and washed twice with PBS to remove curcumin before re-suspending in fresh medium. Cells were removed at indicated times and lysed to prepare the whole cell extract (lower panels). The whole cell extracts (30 μg) were resolved on 7.5% SDS-PAGE, electrotransferred to a nitrocellulose membrane, probed for the p-STAT3 (upper panels) and striped and reprobed for STAT3 (lower panels).
MDA 1986LN cells (2×10^6 cells) were treated with indicated concentrations of AG490 for 8 h and whole extracts prepared. These whole-cell extracts (30 μg) were resolved on 7.5% SDS-PAGE, electrotransferred to a nitrocellulose membrane, probed for p-STAT3 (upper panel), striped and reprobed for STAT3 (middle panel) and β-actin (lower panel). […] The cells were treated with AG490 (100 μM) for the indicated durations and whole cell extracts prepared and analyzed as mentioned earlier. FIG. 15C compares the effect of curcumin and AG490 on proliferation of MDA 1986LN cells by MTT assay.
Since STAT3 was constitutively phosphorylated in MDA 1986LN cells, the ability of curcumin to inhibit the constitutive STAT3 phosphorylation was examined. MDA 1986LN cells were treated either with curcumin (50 μM) for different durations or with different concentrations of curcumin for 1 h and the p-STAT3 levels and STAT3 levels were determined. Curcumin inhibited the constitutively active STAT3 in a time-(FIG. 11B) and a dose-(FIG. 11C) manner. This curcumin-induced inhibition could be observed as early as 30 min and with a concentration as low as 25 μM.
MDA 1986LN cells were treated with curcumin for indicated times or for 1 h and the cells were washed twice with PBS to remove curcumin. The cells were then cultured in media for various durations and the levels of phosphorylated STAT3 were determined. […] However, the STAT3 levels were unaffected by curcumin treatment.
The concentration and the exposure time for AG490 to inhibit STAT3 phosphorylation in MDA 1986LN cells were determined. These cells were incubated with either different concentrations of AG490 or with 100 μM of AG490 for different durations and the levels of p-STAT3 and STAT3 were assessed.

In the case of `COc1cc(/C=C/C(=O)CC(=O)/C=C/c2ccc(O)c(OC)c2)ccc1O` [curcumin, diferuloylmethane], the “translocation of STAT3 to the nucleus” value [1] is reported as “prevented the translocation of the STAT3 to the nucleus”, the “proliferation of multiple myeloma cells” value [2] is reported as “completely suppressed” and the “reversibility of inhibition of STAT3 phosphorylation” value ([3]; 50 μM 1 h then washed) is reported as “removal of curcumin resulted in gradual increase in phosphorylated STAT3”. For the same compound, the “earliest time at which inhibition of constitutive STAT3 phosphorylation could be observed” value ([3]; 50 μM curcumin) was 30 min, the “lowest concentration at which inhibition of constitutive STAT3 phosphorylation could be observed” value ([3]; 1 h) was 25 µM and the “inhibition of constitutive STAT3 phosphorylation” value ([3]; curcumin 50 μM, 1 h) was “inhibited the STAT3 phosphorylation completely; also recorded: completely inhibit”. The “overall expression / levels of STAT3 protein” value ([3]; curcumin treatment) was “did not alter the overall expression of STAT3 protein; also recorded: unaffected”.
